# Literature values, collected in PMC10443619 (ACS chemical biology, 2023).
# Tests used:
# tau [1] = conditions: compared with YM-01
# tau [2] = system: tau
# tau [3] = conditions: compared with MKT-077
# [4] = not given; remark: listed apart in the source
half-life (t1/2),Substance,potency to prevent cellular tau accumulation (tau [1]),total tau in organotypic brain slices (tau [2]; rTg4510 mice),potency to prevent tau accumulation in HeLaC3 cells (tau [3]),blood-brain permeability [4],pathogenic tau in ex vivo brain slices (tau [2]; transgenic rTg4510 mice)
37 min,JG-98,greater potency to prevent cellular tau accumulation than YM-01,reduced total tau,–,–,–
–,YM-01,–,–,enhanced the potency to prevent tau accumulation,lacked detectable blood-brain permeability,reduced pathogenic tau
